# Structures can show the parent of a compound that is named as a salt. Where two headings read alike, the source gives them in different places.
# How the values were obtained:
# [1] = biological target: T1, 5-HT2 receptor in A7r5 rat vascular smooth muscle cells (Rattus norvegicus, UniProt P14842); assay: 5-HT2 Functional Assay: Calcium Mobilization (FLIPR); type: cell-based; conditions: for Emax: read-out: Efficacy (Emax %)
# T1 construct: endogenous in cells; host or cells: A7r5 rat vascular smooth muscle cells
# Experimental: 5-HT2 Functional Assay: Calcium Mobilization
# The receptor-mediated mobilization of intracellular calcium ([Ca^2+]i) was studied using the Fluorescence Imaging Plate Reader (FLIPR) instrument. Rat vascular smooth muscle cells, A7r5, were grown in a normal media of DMEM/10% FBS and 10 μg/ml gentamycin. Confluent cell monolayers were trypsinized, pelleted, and re-suspended in normal media. Cells were seeded in a 50 μL volume at a density of 20,000 cells per well in a black wall, 96-well tissue culture plate and grown for 2 days. On the day of the experiment, one vial of FLIPR Calcium Assay Kit dye was re-suspended in 50 ml of a FLIPR buffer consisting of Hank's Balanced Salt Solution (HBSS), 20 mM HEPES, and 2.5 mM probenecid, pH 7.4. Cells were loaded with the calcium-sensitive dye by addition of an equal volume (50 μl) to each well of the 96-well plate and incubated with dye for 1 h at 23° C. Typically, test compounds were stored at […] in 50% DMSO/50% Ethanol solvent. Compounds were diluted 1:50 in 20% DMSO/20% Ethanol. For dose-response experiments, compounds were diluted 1:50 in FLIPR buffer and serially diluted 1:10 to give a 5- or 8-point dose-response curve.
# At the beginning of an experimental run, a signal test was performed to check the basal fluorescence signal from the dye-loaded cells and the uniformity of the signal across the plate. The basal fluorescence was adjusted between 8000-12000 counts by modifying the exposure time, the camera F-stop, or the laser power. The instrument settings for a typical assay were as follows: laser power 0.3-0.6 W, camera F-stop F/2, and exposure time 0.4 sec. An aliquot (25 μl) of the test compound was added to the existing 100 μl dye-loaded cells at a dispensing speed of 50 μl/sec. Fluorescence data were collected in real-time at 1.0 sec intervals for the first 60 sec and at 6.0 sec intervals for an additional 120 sec. Responses were measured as peak fluorescence intensity minus basal and where appropriate were expressed as a percentage of a maximum 5-HT-induced response.
# 5-HT2 receptors = 5-HT2 receptors (Rattus norvegicus, UniProt P14842); assay: 5-HT2 Receptor Binding Assay ([125I]DOI competition); design: species or system rat or human; conditions: inhibition of [125I]DOI binding, cerebral cortex homogenates
# Experimental: 5-HT2 Receptor Binding Assay
# The assay mixture is incubated for 1 hour at 23° C. in polypropylene tubes and the assays terminated by rapid vacuum filtration over Whatman GF/B glass fiber filters previously soaked in 0.3% polyethyleneimine using ice-cold buffer. Test compounds (at different concentrations) are substituted for methiothepin. Filter-bound radioactivity is determined by scintillation spectrometry on a beta counter.
# [2] = test system: lasered (hypertensive) eyes of conscious cynomolgus monkeys; assay: Acute IOP Response in Lasered (Hypertensive) Eyes of Conscious Cynomolgus Monkeys; type: in vivo, cynomolgus monkey; conditions: 300 μg topical; for % IOP change 1 hr: 1 hr after dose; for % IOP change 3 hr: 3 hr after dose; for % IOP change 6 hr: 6 hr after dose
# Experimental: Acute IOP Response in Lasered (Hypertensive) Eyes of Conscious Cynomolgus Monkeys
# Intraocular pressure (IOP) can be determined with an Alcon Pneumatonometer after light corneal anesthesia with 0.1% proparacaine. Eyes are washed with saline after each measurement. After a baseline IOP measurement, test compound is instilled in one 30 μL aliquot to the right eyes only of nine cynomolgus monkeys. Vehicle is instilled in the right eyes of six additional animals. Subsequent IOP measurements are taken at 1, 3, and 6 hours.
# [3] = percentage of maximum 5-HT-induced response, A7r5 cells
# T1 sequence (P14842 whole entry): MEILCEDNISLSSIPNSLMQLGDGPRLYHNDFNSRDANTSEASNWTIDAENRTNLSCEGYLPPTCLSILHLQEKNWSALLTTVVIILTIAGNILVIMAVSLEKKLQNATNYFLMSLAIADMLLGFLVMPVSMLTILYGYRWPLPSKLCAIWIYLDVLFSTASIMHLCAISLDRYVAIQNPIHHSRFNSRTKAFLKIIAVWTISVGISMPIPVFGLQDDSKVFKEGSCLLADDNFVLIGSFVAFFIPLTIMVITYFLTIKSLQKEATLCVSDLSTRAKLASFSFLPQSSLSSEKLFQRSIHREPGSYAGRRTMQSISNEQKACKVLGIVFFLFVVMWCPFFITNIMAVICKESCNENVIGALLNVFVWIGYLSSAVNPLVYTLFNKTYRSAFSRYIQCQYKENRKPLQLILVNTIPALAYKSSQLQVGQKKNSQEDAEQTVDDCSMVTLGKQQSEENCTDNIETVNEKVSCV
# 5-HT2 receptors, sequence (P14842 whole entry): as above
Molecule,EC50 [1],"Emax [1, 3]",further results
"COc1cc(C[C@@H](C)N)c(OC)cc1CC1CCCS1 (stereo partly drawn) [Example 13, (R)-2-[2,5-Dimethoxy-4-(tetrahydro-thiophen-2-ylmethyl)-phenyl]-1-methyl-ethylamine hydrochloride]",560 nM,81%,–
"COCCCc1cc(OC)c(C[C@@H](C)N)cc1OC [Example 6, (R)-2-[2,5-Dimethoxy-4-(3-methoxy-propyl)-phenyl]-1-methyl-ethylamine hydrochloride]",22 nM,45%,–
"COc1cccc(Cc2cc(OC)c(C[C@@H](C)N)cc2OC)c1 [Example 20, (R)-2-[2,5-Dimethoxy-4-(3-methoxy-benzyl)-phenyl]-1-methyl-ethylamine hydrochloride]",257 nM,53%,–
"COc1cc(C[C@@H](C)N)c(OC)cc1CC1CCCO1 (stereo partly drawn) [Example 12, (R)-2-[2,5-Dimethoxy-4-(tetrahydro-furan-2-ylmethyl)-phenyl]-1-methyl-ethylamine hydrochloride]",82 nM,73%,–
"(R)-2-(4-Furan-2-ylmethyl-2,5-dimethoxy-phenyl)-1-methyl-ethylamine hydrochloride [Example 11]",–,–,"IC50 (5-HT2 receptors): 0.36 nM; EC50 ([1]; intracellular calcium mobilization, A7r5 cells, FLIPR, read-out: EC50): 120 nM; Efficacy (Emax %) [1, 3]: 55%"
"COCCc1cc(OC)c(C[C@@H](C)N)cc1OC.Cl [Example 3, (R)-2-[2,5-Dimethoxy-4-(2-methoxy-ethyl)-phenyl]-1-methyl-ethylamine hydrochloride]",78 nM,53%,% IOP change 1 hr [2]: −5.2%; % IOP change 3 hr [2]: −16.3%; % IOP change 6 hr [2]: −21.5%
"COc1cc(C[C@@H](C)N)c(OC)cc1CCCSC [Example 5, (R)-2-[2,5-Dimethoxy-4-(3-methylsulfanyl-propyl)-phenyl]-1-methyl-ethylamine hydrochloride]",37 nM,21%,–
"COc1cc(C)c(OS(C)(=O)=O)cc1CC(C)N (stereo not shown) [Example 8, Methanesulfonic acid 5-(2-amino-propyl)-4-methoxy-2-methyl-phenyl ester hydrochloride]",890 nM,30%,–
"COc1cc(C[C@@H](C)N)c(OC)cc1Cc1ccccc1 [Example 17, (R)-2-(4-Benzyl-2,5-dimethoxy-phenyl)-1-methyl-ethylamine hydrochloride]",310 nM,43%,–
"COCSCCc1cc(OC)c(C[C@@H](C)N)cc1OC [Example 7, (R)-2-[2,5-Dimethoxy-4-(2-methoxymethylsulfanyl-ethyl)-phenyl]-1-methyl-ethylamine hydrochloride]",91 nM,32%,–
"COc1cc(CC(C)N)c(OC)cc1CSC (stereo not shown) [Example 14, 2-(2,5-Dimethoxy-4-methylsulfanylmethyl-phenyl)-1-methyl-ethylamine; hydrochloride]",68 nM,52%,–
"COc1cc(C[S+](C)[O-])c(OC)cc1CC(C)N (stereo not shown) [Example 15, 2-(4-Methanesulfinylmethyl-2,5-dimethoxy-phenyl)-1-methyl-ethylamine trifluoroacetate]",7600 nM,37%,–
"COc1ccc(Cc2cc(OC)c(C[C@@H](C)N)cc2OC)cc1 [Example 18, (R)-2-[2,5-Dimethoxy-4-(4-methoxy-benzyl)-phenyl]-1-methyl-ethylamine hydrochloride]",220 nM,23%,–
"COc1cc(CC(C)N)c(OC)cc1CC[S+](C)[O-] (stereo not shown) [Example 16, 2-[4-(2-Methanesulfinyl-ethyl)-2,5-dimethoxy-phenyl]-1-methyl-ethylamine hydrochloride]",870 nM,40%,–
"CCOC(=O)Cc1cc(OC)c(C[C@@H](C)N)cc1OC [Example 1, [(R)-4-(2-Amino-propyl)-2,5-dimethoxy-phenyl]-acetic acid ethyl ester hydrochloride]",1100 nM,24%,–
"COc1cc(CC(C)N)c(OC)cc1CCSC.Cl (stereo not shown) [Example 4, 2-[2,5-Dimethoxy-4-(2-methylsulfanyl-ethyl)-phenyl]-1-methyl-ethylamine hydrochloride]",94 nM,51%,% IOP change 1 hr [2]: −3.5%; % IOP change 3 hr [2]: −14.8%; % IOP change 6 hr [2]: −16.1%
"COc1cc(C[C@@H](C)N)c(OC)cc1Cc1ccc(Cl)cc1 [Example 21, (R)-2-[4-(4-Chloro-benzyl)-2,5-dimethoxy-phenyl]-1-methyl-ethylamine hydrochloride]",963 nM,39%,–
"COc1ccccc1Cc1cc(OC)c(C[C@@H](C)N)cc1OC [Example 19, (R)-2-[2,5-Dimethoxy-4-(2-methoxy-benzyl)-phenyl]-1-methyl-ethylamine hydrochloride]",660 nM,22%,–
"COc1cc(C[C@@H](C)N)c(OC)cc1Cc1nc(C)no1 [Example 2, (R)-2-[2,5-Dimethoxy-4-(3-methyl-[1,2,4]oxadiazol-5-ylmethyl)-phenyl]-1-methyl-ethylamine hydrochloride]",1060 nM,23%,–
"COc1cc(C[C@@H](C)N)c(OC)cc1CC1=NCCS1 [Example 10, (R)-2-[4-(4,5-Dihydro-thiazol-2-ylmethyl)-2,5-dimethoxy-phenyl]-1-methyl-ethylamine hydrochloride]",600 nM,52%,–
"COc1cc(C)c(OC(C)=O)cc1CC(C)N (stereo not shown) [Example 9, Acetic acid 5-(2-Amino-propyl)-4-methoxy-2-methyl-phenyl ester hydrochloride]",4900 nM,37%,–

# From patent US20070072920A1, “Phenylethylamine analogs and their use for treating glaucoma” (Alcon, Inc., priority 2005, published 2007)
